Assay results reported in US20140364434A1, “Biomarkers for Prediction of Response to PARP Inhibition in Breast Cancer” (The Regents of the University of Califonia, priority 2011, published 2014).
pIC50: −log10 of the molar value. Read-outs that look alike come from different tables or passages of the source. Each block holds one compound with its values, some of them ahead of it.

Columns and labels:
[1] = test system: hereditary BRCA1/2-related breast cancer; conditions: cited from earlier work
[2] = test system: sporadic triple negative breast cancer; conditions: cited from earlier work
[3] = test system: metastatic triple negative breast cancer; conditions: cited from earlier work
[4] = test system: BRCA1/2 mutation carriers; conditions: monotherapy; BRCA1/2 mutation carriers who had previously received several courses of chemotherapy; cited from earlier work
HS578T = experiment: growth inhibition assay, sensitivity to olaparib (SF50); type: cell-based, human
Description: (§1) Cells were exposed continuously to the inhibitor, and medium and inhibitor were replaced every four days. After 15 days, cells were fixed and stained with sulphorhodamine-B (Sigma, St. Louis, USA) and a colorimetric assay performed as described previously. Surviving fractions (SFs) were calculated and drug sensitivity curves determined with the Four Parameter Logistic Regression model as previously described. […] Nature 2005, 434(7035):917-921, Edwards S L, Brough R, Lord […], Boyd […], Ashworth A: […] Nature 2008, 451(7182):1111-1115]. […] Oncogene 30 (29):3222-3233. doi:10.1038/one.2011.421). A detailed description of the availability and preprocessing of all molecular data sets is provided below and [[…], et al., (2012) Subtype and pathway specific responses to anticancer compounds in breast cancer. […] These cells mirror many of the transcriptional and genomic characteristics of primary breast tumors and have been used to model responses to a large number of experimental and approved therapeutic compounds [Neve R M, Chin […], Clark L, Bayani N, Coppe J P, Tong F et al: A collection of breast cancer cell lines for the study of functionally distinct cancer subtypes. […] (2012) Subtype and pathway specific responses to anticancer compounds in breast cancer. […] Cell lines were divided into a group of 15 resistant and 7 sensitive cell lines, based on an SF50 threshold of 1 μM. […] Surviving fractions (SFs) were calculated and drug sensitivity curves determined with the Four Parameter Logistic Regression model as previously described [Farmer H, McCabe N, Lord C J, Tutt A N, Johnson D A, Richardson […], Dillon […], Knights C et al: Targeting the DNA repair defect in BRCA mutant cells as a therapeutic strategy. Nature 2005, 434(7035):917-921].\

MDAMB157 = experiment: as above; type: cell-based, human
Description: as §1

MDAMB134VI = experiment: as above; type: cell-based, human
Description: as §1

CAMA1 = experiment: as above; type: cell-based, human
Description: as §1

SKBR3 = experiment: as above; type: cell-based, human
Description: as §1

HCC202 = experiment: as above; type: cell-based, human
Description: as §1

SUM149PT = experiment: as above; type: cell-based, human
Description: as §1

BT20 = experiment: as above; type: cell-based, human
Description: as §1

HCC38 = experiment: as above; type: cell-based, human
Description: as §1

MDAMB436 = experiment: as above; type: cell-based, human
Description: as §1

HCC1143 = experiment: as above; type: cell-based, human
Description: as §1

MDAMB453 = experiment: as above; type: cell-based, human
Description: as §1

HCC70 = experiment: as above; type: cell-based, human
Description: as §1

SUM159PT = experiment: as above; type: cell-based, human
Description: as §1

MDAMB468 = experiment: as above; type: cell-based, human
Description: as §1

MCF7 = experiment: as above; type: cell-based, human
Description: as §1

T47D = experiment: as above; type: cell-based, human
Description: as §1

HCC1428 = experiment: as above; type: cell-based, human
Description: as §1

MDAMB231 = experiment: as above; type: cell-based, human
Description: as §1

HCC1954 = experiment: as above; type: cell-based, human
Description: as §1

BT474 = experiment: as above; type: cell-based, human
Description: as §1

BT549 = experiment: as above; type: cell-based, human
Description: as §1

[5] = test system: panel of 22 breast cancer cell lines; experiment: growth inhibition assay, whole panel (SF50); type: cell-based, human
Description: as §1

[6] = test system: carriers of a BRCA1/2 mutation and patients without known BRCA mutations; conditions: cited from earlier work
[7] = heavily pre-treated sporadic triple negative breast cancer
[8] = read-out: Olaparib SF50, continuous exposure 15 days, sulphorhodamine-B
[9] = read-out: olaparib SF50, Table 9

SMILES: C[C@]1(c2nc3c(C(N)=O)cccc3[nH]2)CCCN1 [ABT-888]
- efficacy combined with DNA-damaging agent temozolomide [1]: efficacious
- activity of the combination with temozolomide [2, 7]: no evidence of activity

SMILES: NC(=O)c1ccc(I)c([N+](=O)[O-])c1 [BSI-201]
- survival, phase II clinical trial ([3]; combined with gemcitabine/carboplatin chemotherapy): dramatic survival advantage
- confirmation in randomized, open-label phase III study ([3]; combined with gemcitabine/carboplatin): could not be confirmed

SMILES: NC(=O)c1cccc2cn(-c3ccc([C@@H]4CCCNC4)cc3)nc12 [MK-4827]
- efficacy as single agent [1]: efficacious

- pIC50 (MDAMB157; [8]): 5.62
- pIC50 (MDAMB157; [9]): 5.62
- pIC50 (MDAMB134VI; [8]): 4.51
- pIC50 (MDAMB134VI; [9]): 4.51
- pIC50 (SKBR3; [8]): < 4.30
- pIC50 (SKBR3; [9]): < 4.30
- pIC50 (HCC202; [8]): 6.38
- pIC50 (HCC202; [9]): 6.38
- pIC50 (BT20; [8]): < 4.30
- pIC50 (BT20; [9]): < 4.30
- pIC50 (HCC38; [8]): < 4.30
- pIC50 (HCC38; [9]): < 4.30
- pIC50 (MDAMB436; [8]): 9.36
- pIC50 (MDAMB436; [9]): 9.36
- pIC50 (HCC1143; [8]): 7.68
- pIC50 (HCC1143; [9]): 7.68
- pIC50 (MDAMB453; [8]): 8.04
- pIC50 (MDAMB453; [9]): 8.04
- pIC50 (MDAMB468; [8]): 6.29
- pIC50 (MDAMB468; [9]): 6.29
- pIC50 (MCF7; [8]): 4.83
- pIC50 (MCF7; [9]): 4.83
- pIC50 (T47D; [8]): 4.70
- pIC50 (T47D; [9]): 4.70
- pIC50 (HCC1428; [8]): < 4.30
- pIC50 (HCC1428; [9]): < 4.30
- pIC50 (MDAMB231; [8]): 4.52
- pIC50 (MDAMB231; [9]): 4.52
- pIC50 (HCC1954; [8]): 4.81
- pIC50 (HCC1954; [9]): 4.81
- pIC50 (BT474; [8]): 4.49
- pIC50 (BT474; [9]): 4.49
- pIC50 (BT549; [8]): 4.67
- pIC50 (BT549; [9]): 4.67
- pIC50 ([5]; 5 cell lines of the panel, read-out: SF50 not reached at the maximum treatment concentration): < 4.30
SMILES: O=C(c1cc(Cc2n[nH]c(=O)c3ccccc23)ccc1F)N1CCN(C(=O)C2CC2)CC1 [Olaparib]
- objective response rates [4]: 41%
- efficacy as single agent [1]: efficacious
- pIC50 (HS578T; [8]): 5.18
- pIC50 (HS578T; [9]): 5.18
- pIC50 (CAMA1; [8]): < 4.30
- pIC50 (CAMA1; [9]): < 4.30
- pIC50 (SUM149PT; [8]): 7.79
- pIC50 (SUM149PT; [9]): 7.79
- pIC50 (HCC70; [8]): 6.18
- pIC50 (HCC70; [9]): 6.18
- pIC50 (SUM159PT; [8]): 4.79
- pIC50 (SUM159PT; [9]): 4.79
- pIC50 ([5]; read-out: concentration of olaparib needed to reduce survival to 50% (SF50), lower end of the range, lowest SF50 among 22 breast cancer cell lines): 9.36
- pIC50 ([5]; read-out: concentration of olaparib needed to reduce survival to 50% (SF50), upper end of the range, highest SF50 reached among 22 breast cancer cell lines): 4.49
- antitumor activity, phase 1 trial ([6]; BRCA1/2 mutation carriers vs patients without known BRCA mutations): has antitumor activity for the majority of carriers of a BRCA1/2 mutation but not for patients without known BRCA mutations
- adverse effects, phase 1 trial ([6]; compared with conventional chemotherapy): only a few of the adverse effects of conventional chemotherapy
- results as single agent [2, 7]: negative results
- response to monotherapy, phase 2 trial ([2]; olaparib monotherapy, triple negative breast cancer patients): largely did not respond
